In article PMC4822253, “Inhibition of BMP and of TGFβ receptors downregulates expression of XIAP and TAK1 leading to lung cancer cell death” (Molecular Cancer, 2016):

Experiments:
H1299 cells [1] = assay: Western blot analysis of cells in culture; type: cell-based
Protocol: Total cellular protein was prepared using RIPA buffer containing a protease inhibitor cocktail and protein concentration was measured using the BCA assay as described. In brief, protein was analyzed by SDS-PAGE, transferred to nitrocellulose (Schleicher and Schuell, Keene, NH). After blocking, the blots were incubated overnight at 4 °C with the appropriate primary antibody in Tris-buffered saline with 1 % Tween (TBST) and 5 % BSA. Secondary antibodies were applied for 1 h at room temperature. Specific proteins were detected using the enhanced chemiluminescence system (Amersham, Arlington Heights, IL). The primary antibodies that were used were rabbit monoclonal anti-pSmad 1/5, rabbit monoclonal anti-pSmad2, rabbit monoclonal anti-Smad2, rabbit monoclonal anti-pTAK1, rabbit monoclonal XIAP, rabbit anti-monoclonal p-p65, rabbit monoclonal anti-activated caspase-3, rabbit polyclonal anti-BMPRII, and rabbit monoclonal anti-EGR-1 (Cell signaling Technology, Danvers MA), Rabbit monoclonal anti-TAK1 (Invitrogen, Grand Island NY), rabbit anti-actin, an affinity isolated antigen specific antibody (Sigma, Saint Louis, MO), rabbit monoclonal anti-Id1 and rabbit monoclonal anti-Id3 (Calbioreagents, San Mateo, CA), rabbit polyclonal anti-GAPDH (Sigma, St. Louis, MO) and rabbit polyclonal pMEK-1/2 (Cell Signaling, Danvers MA).

H1299 Id1-luc cells = assay: Id1-promoter luciferase reporter assay; type: cell-based
Protocol: H1299 cells were stably transfected with the Id1-promoter luciferase reporter. Treated cells were lysed with 1X luciferase lysis buffer (Promega). Samples were added to luciferase assay substrate (Promega) and luminsescence measured by the TD-20/20 Luminometer (Turner Designs/Turner BioSystems, Sunnyvale, CA). Control samples included luciferase assay substrate alone and luciferase assay substrate plus 1X reporter lysis buffer.

H1299 cells [2] = assay: Cell death assay (ethidium bromide uptake); type: cell-based; settings: H1299 cells; after 3 days
Protocol: Cells were plated in 6 well plates with 10^6 cells per well. Three days following treatment with inhibitor(s) and/or transfection the adherent and floating cells were harvested and incubated with 0.1 mg/ml of ethidium bromide. Cells that die by necrosis or apoptosis lose membrane integrity and take up ethidium bromide. Immediately after staining approximately 100 cells were counted and the percentage of cells that took up ethidium bromide was determined.

BMPRII = molecular target: T1, BMPRII (Homo sapiens, UniProt Q13873); design: method as in PMID 23639540; settings: reported literature (Table 1); cited from earlier work
T1 construct: purchased Reaction Biology Corporation (Malvern, PA)
T1 sequence (Q13873 27-1038): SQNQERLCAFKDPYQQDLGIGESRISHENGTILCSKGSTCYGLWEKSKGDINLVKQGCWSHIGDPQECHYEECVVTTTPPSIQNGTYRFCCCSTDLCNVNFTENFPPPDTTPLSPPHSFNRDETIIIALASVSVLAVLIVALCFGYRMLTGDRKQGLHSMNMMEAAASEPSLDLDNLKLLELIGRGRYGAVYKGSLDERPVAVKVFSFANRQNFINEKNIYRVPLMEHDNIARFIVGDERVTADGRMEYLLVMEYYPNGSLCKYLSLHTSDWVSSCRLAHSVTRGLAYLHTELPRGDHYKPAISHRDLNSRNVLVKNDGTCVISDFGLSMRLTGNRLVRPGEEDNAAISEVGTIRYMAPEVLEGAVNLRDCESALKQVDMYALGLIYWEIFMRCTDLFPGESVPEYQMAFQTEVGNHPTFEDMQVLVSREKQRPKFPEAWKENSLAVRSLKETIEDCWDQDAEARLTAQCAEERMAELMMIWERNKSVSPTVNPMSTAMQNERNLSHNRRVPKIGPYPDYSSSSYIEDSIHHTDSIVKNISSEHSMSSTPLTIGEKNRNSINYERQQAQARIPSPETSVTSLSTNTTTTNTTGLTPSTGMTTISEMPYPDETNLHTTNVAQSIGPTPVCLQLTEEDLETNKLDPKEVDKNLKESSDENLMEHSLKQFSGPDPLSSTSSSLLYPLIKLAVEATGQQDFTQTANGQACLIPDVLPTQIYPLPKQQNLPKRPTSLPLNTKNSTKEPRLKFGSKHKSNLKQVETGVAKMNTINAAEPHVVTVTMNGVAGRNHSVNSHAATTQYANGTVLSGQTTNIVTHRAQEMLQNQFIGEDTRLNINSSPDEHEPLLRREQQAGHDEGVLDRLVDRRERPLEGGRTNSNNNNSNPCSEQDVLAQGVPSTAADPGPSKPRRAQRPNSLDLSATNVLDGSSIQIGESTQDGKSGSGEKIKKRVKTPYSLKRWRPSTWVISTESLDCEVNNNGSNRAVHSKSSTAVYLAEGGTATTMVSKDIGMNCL

Alk5/TGFbetaR1 = molecular target: T2, Alk5/TGFbetaR1 (Homo sapiens, UniProt P36897); settings: cited from earlier work
T2 construct: purchased Reaction Biology Corporation (Malvern, PA)
T2 sequence (P36897 34-503): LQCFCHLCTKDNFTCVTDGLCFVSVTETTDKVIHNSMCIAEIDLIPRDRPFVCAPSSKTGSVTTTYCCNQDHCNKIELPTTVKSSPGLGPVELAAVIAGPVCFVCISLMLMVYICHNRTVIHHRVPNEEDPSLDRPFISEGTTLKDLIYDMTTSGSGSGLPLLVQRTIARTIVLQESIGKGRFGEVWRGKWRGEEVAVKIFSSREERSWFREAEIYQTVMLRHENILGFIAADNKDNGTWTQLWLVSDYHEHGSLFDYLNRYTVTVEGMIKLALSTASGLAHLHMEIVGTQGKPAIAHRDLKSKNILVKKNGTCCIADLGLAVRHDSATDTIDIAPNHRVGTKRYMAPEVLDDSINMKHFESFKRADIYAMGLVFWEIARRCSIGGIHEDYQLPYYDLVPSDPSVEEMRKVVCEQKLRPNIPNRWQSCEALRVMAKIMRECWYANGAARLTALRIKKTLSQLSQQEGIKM

Alk2/ACVRR1 = molecular target: T3, Alk2/ACVRR1 (Homo sapiens, UniProt Q04771); design: purchased Reaction Biology Corporation (Malvern, PA); settings: reported literature; read-out: IC50 Alk2/ACVRR1; cited from earlier work
T3 sequence (Q04771 21-509): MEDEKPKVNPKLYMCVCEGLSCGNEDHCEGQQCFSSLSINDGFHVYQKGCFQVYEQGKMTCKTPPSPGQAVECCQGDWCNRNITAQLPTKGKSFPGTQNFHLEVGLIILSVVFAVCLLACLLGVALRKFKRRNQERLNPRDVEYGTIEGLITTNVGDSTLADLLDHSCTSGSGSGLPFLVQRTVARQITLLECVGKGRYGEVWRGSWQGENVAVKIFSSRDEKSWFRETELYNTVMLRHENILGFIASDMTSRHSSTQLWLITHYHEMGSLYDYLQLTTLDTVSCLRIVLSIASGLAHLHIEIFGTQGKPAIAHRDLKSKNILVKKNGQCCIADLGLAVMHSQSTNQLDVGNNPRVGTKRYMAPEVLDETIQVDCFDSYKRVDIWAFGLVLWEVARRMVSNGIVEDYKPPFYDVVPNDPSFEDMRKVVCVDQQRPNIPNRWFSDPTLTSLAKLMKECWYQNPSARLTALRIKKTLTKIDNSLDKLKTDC

Alk3/BMPR1A = Alk3/BMPR1A (Homo sapiens, UniProt P36894); design: purchased Reaction Biology Corporation (Malvern, PA); method as in PMID 23639540; settings: reported literature; cited from earlier work
A549 cells = assay: Cell counts (live cells, trypan blue); type: cell-based; settings: compound alone, 7 days
Protocol: (§1) Cells were plated into 6 well plates at 10^5 cells per well and treated with 1 μM DMSO or antagonist for 7 days. The cells were detached with trypsin, stained with trypan blue, and the number of live cells counted using a hemocytometer.

H1299 cells [3] = assay: Cell counts (live cells, trypan blue); type: cell-based; settings: compound alone, 7 days
Protocol: as §1

Chain of Alk3/BMPR1A (P36894 24-532): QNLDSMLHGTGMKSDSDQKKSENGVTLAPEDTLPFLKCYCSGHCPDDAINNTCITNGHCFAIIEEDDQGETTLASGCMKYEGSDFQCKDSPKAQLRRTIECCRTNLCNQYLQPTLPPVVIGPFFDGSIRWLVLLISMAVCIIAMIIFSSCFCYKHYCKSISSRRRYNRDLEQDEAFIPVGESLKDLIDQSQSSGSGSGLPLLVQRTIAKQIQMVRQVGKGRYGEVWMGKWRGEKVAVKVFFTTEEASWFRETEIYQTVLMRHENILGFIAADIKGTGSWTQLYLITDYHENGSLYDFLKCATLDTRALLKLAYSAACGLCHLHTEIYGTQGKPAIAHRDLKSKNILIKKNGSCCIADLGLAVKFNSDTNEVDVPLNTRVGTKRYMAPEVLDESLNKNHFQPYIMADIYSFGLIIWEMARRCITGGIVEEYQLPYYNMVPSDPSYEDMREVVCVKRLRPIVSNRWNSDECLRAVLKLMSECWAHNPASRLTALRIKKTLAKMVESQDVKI

## COc1cc(O)c2c(c1)/C=C/C[C@H](O)[C@H](O)C(=O)/C=C\C[C@H](C)OC2=O [5Z, 5Z-7-oxozeaenol]
H1299 cells [1]; H1299 cells, after 24 h
  expression of pSmad 1/5, Id1, and pTAK1: dose-related decrease
H1299 cells [1]; H1299 cells, after 48 h
  expression of Id1, pSmad 1/5, and pTAK1: increasing
H1299 Id1-luc cells; 2 μM, after 24 h
  Id1 promoter activity: suppressed
H1299 Id1-luc cells; after 48 h
  Id1 promoter activity: no longer suppressed

## CC(C)Oc1ccc(-c2cnc3c(-c4ccnc5ccccc45)cnn3c2)cc1 [DMH1]
H1299 cells [1]; H1299 cells, 3 days
  expression of Smad2: did not show significant regulation
H1299 cells [1]; H1299 cells, after 3 days (cell line not stated for DMH1 and LDN)
  expression of XIAP: did not downregulate
H1299 cells [1]; H1299 cells, after 3 days, alone or in combination with SB
  activation of caspase-3: did not activate
H1299 cells [1]; in vitro 48 h, cell line not stated in legend
  activation of Smad2 and TAK1: activation
H1299 cells [2]
  cell death: little cell death
BMPRII
  inhibition of BMPRII: does not occur
Alk5/TGFbetaR1
  activity for TGFβ receptors: no activity
Alk2/ACVRR1
  IC50: 108 nM
Alk3/BMPR1A
  IC50: 5 nM

## O=C(NOC[C@H](O)CO)c1ccc(F)c(F)c1Nc1ccc(I)cc1F [PD0325901]
H1299 Id1-luc cells; 48 h
  promoter activity of Id1 (Id-1 luciferase reporter): did not regulate

## Cc1cccc(-c2[nH]c(C(C)(C)C)nc2-c2ccc3c(c2)OCO3)n1 [SB]
H1299 cells [1]; H1299 cells, compound alone, increasing doses
  expression of Id1: dose-related increase
H1299 Id1-luc cells; compound alone
  Id1 promoter activity: increase
A549 cells
  growth (cell counts): growth suppression
H1299 cells [3]
  growth (cell counts): little effect
